{
  "source": "PubChem BioAssay AID1996",
  "data": [
    {"conditions": "buffer; pH 7.4; 200.0 µM", "units": {"solubility kinetic": "µg/mL"}, "values": [
      {"compound": "CN1CCN(c2ccc([N+](=O)[O-])cc2NC(=O)c2ccco2)CC1", "solubility kinetic": 20.8},
      {"compound": "COc1ccc(CNCC(O)(c2ccccc2)c2ccccc2)cc1", "solubility kinetic": "> 50"},
      {"compound": "COC(=O)CCCNC(=O)c1ccccn1", "solubility kinetic": "> 33.3"},
      {"compound": "COc1ccc(CNC(=O)c2cc(C(C)=O)c[nH]2)cc1", "solubility kinetic": 12.9},
      {"compound": "CSc1ncccc1C(=O)OCC(=O)NC1CCC(C)CC1", "note": "(configuration not stated)", "solubility kinetic": 16.4},
      {"compound": "Cc1ccc(C(=O)Cn2c(C(=O)O)cc3ccccc32)cc1", "solubility kinetic": "> 44"},
      {"compound": "COc1ccc(Cl)cc1NC(=O)C(OC)c1ccccc1", "note": "(configuration not stated)", "solubility kinetic": 3.9},
      {"compound": "CC(SCc1ccccc1)C(=O)Nc1ccccc1F", "note": "(configuration not stated)", "solubility kinetic": 35.1},
      {"compound": "Cc1c(Cc2ccccc2)c(=O)n2c([nH]c3ccccc32)c1C#N", "solubility kinetic": "< 0.2"},
      {"compound": "O=C(Nc1ccc2ccccc2n1)c1ccccc1", "solubility kinetic": 29.8},
      {"compound": "CC1Oc2ccccc2N(CC(=O)NC2CC2)C1=O", "note": "(configuration not stated)", "solubility kinetic": "> 39"},
      {"compound": "CC(=O)c1c(OCC(=O)N(C)C2CCCCC2)ccc2c(C)cc(=O)oc12", "solubility kinetic": "> 55.7"},
      {"compound": "C=CCN1C(=O)CSC1=Nc1ccc(NC(C)=O)cc1", "solubility kinetic": 42},
      {"compound": "N#Cc1c(N)n(-c2ccc(N)cc2)c2nc3ccccc3nc12", "solubility kinetic": 1.2},
      {"compound": "O=C(CN1C(=O)c2cccc3cccc(c23)C1=O)NCCCO", "solubility kinetic": "> 46.8"},
      {"compound": "Cc1ccc(C(=O)NC(C)C(c2cccs2)N2CCCC2)s1", "note": "(configuration not stated)", "solubility kinetic": "> 50.2"},
      {"compound": "C/C=C/c1ccc(OCCCCN2CCC(C)CC2)c(OC)c1", "solubility kinetic": 33.9},
      {"compound": "O=[N+]([O-])/C=C1\\NCCN1Cc1ccc(Cl)nc1", "solubility kinetic": 35.8},
      {"compound": "COc1ccc2c(c1)CCc1c(C(=O)NCC(C)C)noc1-2", "solubility kinetic": 1.5},
      {"compound": "CC1=CC(C)(C)N(C(=O)CN2C(=O)CCC2=O)c2ccc(C)cc21", "solubility kinetic": "> 49"},
      {"compound": "CCN(CC)S(=O)(=O)c1ccc(/C=C/C(=O)OCC(=O)NCc2ccco2)cc1", "solubility kinetic": 17.3},
      {"compound": "O=[N+]([O-])C1=CC=C2C(=NC3(CCCCC3)N2O)C1=NC1CCCCC1", "solubility kinetic": 24.6},
      {"compound": "Cn1c(=O)c(-c2ccccc2[N+](=O)[O-])c(Cl)c2ccccc21", "solubility kinetic": 1.2},
      {"compound": "CNC(=O)COC(=O)c1ccccc1NC(=O)c1ccco1", "solubility kinetic": "> 45.3"},
      {"compound": "CCNCc1ccc(OCc2cccs2)c(OCC)c1", "solubility kinetic": "> 43.7"},
      {"compound": "Cc1cc(/C(N)=N/OC(=O)Nc2cccc(C(F)(F)F)c2)no1", "solubility kinetic": 7.2},
      {"compound": "CCc1cc2c(Nc3ccccc3O)nc(C)nc2s1.Cl", "solubility kinetic": "< 0.2"},
      {"compound": "Cc1cc(C)nc(SCC(=O)OCC(=O)Nc2ccccc2)n1", "solubility kinetic": "> 49.7"},
      {"compound": "Cc1cccc(NC(=O)c2ccc3c(c2)C(=O)N(c2ccccn2)C3=O)c1C", "solubility kinetic": 2.2},
      {"compound": "NC(=S)Nc1ccc(F)cc1F", "solubility kinetic": "> 28.2"},
      {"compound": "CC1CN(S(=O)(=O)c2ccc(C(=O)O)cc2)CC(C)O1", "note": "(configuration not stated)", "solubility kinetic": "> 44.9"},
      {"compound": "Cc1c(C(=O)Nc2cccc(S(=O)(=O)N3CCOCC3)c2)oc2ccccc12", "solubility kinetic": 2.3},
      {"compound": "CN1CCN(C(=O)c2cc(Cl)cc(Cl)c2)CC1", "solubility kinetic": "> 41"},
      {"compound": "O=C(NCc1ccc(Cl)cc1Cl)Nc1ccccc1", "solubility kinetic": 0.4},
      {"compound": "COCCn1c(SCC(=O)N2CCOCC2)nc2ccccc2c1=O", "solubility kinetic": 51.5},
      {"compound": "Cc1ccc(NC(=O)CN(C)C(=O)c2ccccn2)cc1", "solubility kinetic": "> 42.5"},
      {"compound": "CC(NC(=O)c1ccncc1)c1ccccc1", "note": "(configuration not stated)", "solubility kinetic": 26.5},
      {"compound": "CN(C)C(=S)SCCn1c(N)nc(N(C)C)nc1=O", "solubility kinetic": "> 45.4"},
      {"compound": "COc1ccc(C(=O)CC(=O)C(=O)Nc2ccc(C)c(C)c2)cc1", "solubility kinetic": 12.4},
      {"compound": "COc1ccc(C2SCC(=O)N2c2ccc(OC)cc2)cc1", "note": "(configuration not stated)", "solubility kinetic": 45.7},
      {"compound": "O=C(O)c1ccccn1", "solubility kinetic": "> 18.5"},
      {"compound": "O=C1C(CSCc2ccccc2)NC(=S)N1c1ccccc1", "note": "(configuration not stated)", "solubility kinetic": 2.9},
      {"compound": "O=C(NC(=S)N1CCCCC1CO)c1cccs1", "note": "(configuration not stated)", "solubility kinetic": "> 42.7"},
      {"compound": "CNC(=S)Nc1cccc([N+](=O)[O-])c1", "solubility kinetic": "> 31.7"},
      {"compound": "CC1CN(C(=O)COC(=O)c2cnc(Cl)c(Cl)c2)CC(C)O1", "note": "(configuration not stated)", "solubility kinetic": "> 52.1"},
      {"compound": "CCOC(=O)Cn1ccc(NC(=O)c2ccc(F)cc2)n1", "solubility kinetic": "> 43.7"},
      {"compound": "O=C1CSC(c2ccccc2O)N1Cc1ccccc1", "note": "(configuration not stated)", "solubility kinetic": "> 42.8"},
      {"compound": "COc1ccccc1Cn1c(CO)nc2ccccc21", "solubility kinetic": 37.4},
      {"compound": "O=C(NCc1csc(-c2cccs2)n1)C1CCCCC1", "solubility kinetic": 3.9},
      {"compound": "CCN(C(=O)COC(=O)CCNS(=O)(=O)c1ccccc1F)c1c(N)n(Cc2ccccc2)c(=O)[nH]c1=O", "solubility kinetic": "> 82.1"},
      {"compound": "COC(=O)c1nn(-c2ccc(C)cc2)ccc1=O", "solubility kinetic": "> 36.6"},
      {"compound": "COC(=O)c1sccc1Oc1ccc(Cl)cc1N1C(=O)CCC1=O", "solubility kinetic": 48.5},
      {"compound": "Cc1cc(C)cc(OCC(=O)OCC(=O)NC2CC2)c1", "solubility kinetic": "> 41.6"},
      {"compound": "Cc1nn(C)c(C)c1/C=C(/C(=O)C(C)C)n1cncn1", "solubility kinetic": "> 41"},
      {"compound": "CC(NC(=O)c1cccc(F)c1)C1CC2CCC1C2", "note": "(configuration not stated)", "solubility kinetic": 19.9},
      {"compound": "O=C(CN1C(=O)c2ccccc2S1(=O)=O)Nc1cccc(S(=O)(=O)N2CCCCC2)c1", "solubility kinetic": 34.4},
      {"compound": "COc1cc(C(=O)OCC(=O)N2CCCCCC2)c([N+](=O)[O-])cc1OC", "solubility kinetic": "> 55"},
      {"compound": "Cc1ccc(NC(=O)c2cnccn2)cc1C", "solubility kinetic": 31.7},
      {"compound": "C=Cn1cc[n+](CC(=O)c2ccc(OC)cc2)c1.[Br-]", "solubility kinetic": 45.2},
      {"compound": "O=C(COc1ccc(Br)cc1F)NC1CC1", "solubility kinetic": "> 43.2"},
      {"compound": "O=[N+]([O-])c1ccccc1S(=O)(=O)Nc1cccc(S(=O)(=O)N2CCCC2)c1", "solubility kinetic": "> 61.7"},
      {"compound": "COCCCNC(=O)/C(C#N)=C/c1ccc(F)cc1", "solubility kinetic": 38.4},
      {"compound": "Nc1ccc2oc(=O)c(-c3ccccc3)cc2c1", "solubility kinetic": 19.3},
      {"compound": "O=C(NCCCN1CCCC1=O)c1cc2ccccc2o1", "solubility kinetic": "> 42.9"},
      {"compound": "O=C(O)CCN1C(=O)C2C3c4ccccc4C(c4ccccc43)C2C1=O", "note": "(configuration not stated)", "solubility kinetic": "> 52.1"},
      {"compound": "O=C(CN1c2cccc3cccc(c23)S1(=O)=O)NCCc1ccc(F)cc1", "solubility kinetic": 1.9},
      {"compound": "O=C(NCc1ccccc1)c1cccn(Cc2ccccc2)c1=O", "solubility kinetic": 45.9},
      {"compound": "CCC(=O)Nc1ccc(C(=O)CN2CCC(C)CC2)cc1", "solubility kinetic": 39.4},
      {"compound": "CCOC(=O)C(=O)Nc1ccc(OCc2ccccc2)cc1", "solubility kinetic": 30.2},
      {"compound": "Cc1cn(C2CCC(CO)O2)c(=O)[nH]c1=O", "note": "(configuration not stated)", "solubility kinetic": "> 33.9"},
      {"compound": "Cc1ccccc1N=C1c2ccccc2C(=O)C1[N+](=O)[O-]", "note": "(configuration not stated)", "solubility kinetic": 31.7},
      {"compound": "Fc1ccc2nc3c(nc2c1)CCCC3", "solubility kinetic": 13.3},
      {"compound": "COc1ccc(NC(=O)CN2C(=O)NC3(CCCCCC3)C2=O)cc1Cl", "solubility kinetic": 13.8},
      {"compound": "COc1ccccc1N1CCN(c2nc(C)cc(C)c2C#N)CC1", "solubility kinetic": 10.4},
      {"compound": "Cn1c(-c2ccccc2)cc2ccccc21", "solubility kinetic": 0.6},
      {"compound": "COc1ccc(-c2ccc(CCC(=O)O)n2Cc2ccco2)cc1", "solubility kinetic": 48.1},
      {"compound": "COc1ccc(CCNC(=O)/C=C/c2ccco2)cc1", "solubility kinetic": 38.9},
      {"compound": "c1ccc(Cc2c[nH]c3ccccc23)cc1", "solubility kinetic": 6.7},
      {"compound": "CCN1CCN(CCC(=O)Nc2cc(OC)cc(OC)c2)CC1", "solubility kinetic": 35.2},
      {"compound": "O=S(=O)(Nc1ccccn1)c1ccc(Cl)c2ccccc12", "solubility kinetic": 1.4},
      {"compound": "Cc1nc2ccccc2c2c1C(=O)N(c1cccc(C(=O)O)c1)C2=O", "solubility kinetic": "> 49.8"},
      {"compound": "CCOc1ccc(C(=O)CCC(=O)Nc2ccccc2C)cc1", "solubility kinetic": 4.6},
      {"compound": "CC(=O)Nc1ccc2c(c1)CCCC2", "solubility kinetic": "> 28.4"},
      {"compound": "c1ccc(-n2cnc3ccccc32)nc1", "solubility kinetic": 26.3},
      {"compound": "O=C(NCCc1ccccc1)C(=S)N1CCCCC1", "solubility kinetic": "> 41.5"},
      {"compound": "O=S(=O)(Nc1cccc2cccnc12)c1ccccc1", "solubility kinetic": 3.9},
      {"compound": "COc1ccc(OC)c(N/C=C/C(=O)c2ccccc2)c1", "solubility kinetic": 2.1}
    ]}
  ]
}
